In patent publication US11667658B2, “Chemical synthesis of the organoarsenical antibiotic arsinothricin” (The Florida International University Board of Trustees, priority 2021, dated 2023):

System: PpArsN1, the AST-selective N-acetyltransferase
Assay: Enzymatic N-acetylation of AST by PpArsN1 (HPLC-ICP-MS)
Format: biochemical, Pseudomonas putida KT2440
Description: Enzymatic N-acetylation of AST (1). PpArsN1, the AST-selective N-acetyltransferase from Pseudomonas putida KT2440, was purified. […] The reaction solution was filtered using an Amicon Ultra centrifugal filter with a 3K cutoff membrane (MilliporeSigma), and arsenic species in the filtrate were analyzed by HPLC-ICP-MS.

Row | Structure (SMILES) | conversion to L-N-Ac-AST by PpArsN1 (10 μM AST, 0.2 μM PpArsN1, 0.2 mM AcCoA, 37° C., 30 min (FIG. 23)) [%] | conversion to L-N-Ac-AST by PpArsN1 (in words) (PpArsN1/AcCoA, HPLC-ICP-MS (FIG. 23))
1 | C[As](=O)(O)CCC(N)C(=O)O (centres unmarked) [sAST] | 50 | –
2 | C[As](=O)(O)CCC(N)C(=O)O (centres unmarked) [bAST] | – | nearly completely converted
